Assays:
[1] = tested on: OCI-Ly10 human diffuse large B-cell lymphoma xenograft; test: Study 1: OCI-Ly10 xenograft model, in vivo tumor efficacy; parameters: species or system SCID mice; settings: for TGI %: Day 21; for dAUC: unit assumed
Procedure: OCI-Ly 10 Study 1: OCI-Ly 10 is a human diffuse large B-cell lymphoma cell-line derived xenograft. 6 week old female SCID mice (Beijing HFK Bioscience Co., Ltd.) were inoculated subcutaneously in the right flank (cell suspension) with 4×10^6 OCI-Ly10 cells. When the mean tumor volume reached approximately 200 mm^3, the animals were randomized into treatment and control groups (n=7/group). Tumor growth inhibition and body weight change were calculated on Day 21 of treatment.
(§1) Final doses received were 25 mg/kg or 15 mg/kg, respectively.
(§2) Tumors were measured twice weekly using vernier calipers. Tumor volumes were calculated using standard procedures V=W^2×L/2, where V=volume, W=width, and L=length for the tumor xenograft. […] Tumor size and body weight were measured twice a week for the duration of the study. Mice were euthanized when the average tumor volume of a treatment or control group reached approximately 1000 mm^3 or when an individual tumor exceeded the humane end-point for size.
(§3) These values were compared across treatment groups to assess whether the differences in the trends over time were statistically significant. To compare pairs of treatment groups, the following mixed-effects linear regression model was fit to the data using the maximum likelihood method: Yijk−Yi0k=Yi0k+treati+dayi+dayj^2+(treat*day)ij+(treat*day^2)ij+eijk (1) where Yijk is the log10 tumor value at the j^th time point of the k^th animal in the i^th treatment, Yi0k is the day 0 (baseline) log10 tumor value in the k^th animal in the i^th treatment, day, was the median-centered time point and (along with dayj^2) was treated as a continuous variable, and eijk is the residual error. A spatial power law covariance matrix was used to account for the repeated measurements on the same animal over time. Interaction terms as well as dayj^2 terms were removed if they were not statistically significant.
(§4) The predicted differences in the log tumor values (Yijk−Yi0k, which can be interpreted as log10 (fold change from day 0)) were taken from the above models to calculate mean AUC values for each treatment group. A dAUC value was then calculated as: […]
(§5) For synergy analyses, the observed differences in the log tumor values were used to calculate AUC values for each animal. […] The AUC for the control, or vehicle, group was calculated using the predicted values from the pairwise models described above. We defined a measure of synergy as follows:
(§6) The effect was classified into four different categories. It was considered synergistic if the synergy score was less than 0 and additive if the synergy score wasn't statistically different from 0.
(§7) One group served as the vehicle-treated group (Group 1) receiving IV treatment with the vehicle for I-263a (20% HPβCD) on a QW schedule.

[2] = tested on: OCI-Ly10 human diffuse large B-cell lymphoma xenograft; test: Study 2: OCI-Ly10 xenograft model, in vivo tumor efficacy; parameters: species or system SCID mice; settings: for TGI %: Day 21
Procedure: OCI-Ly10 Study 2: OCI-Ly 10 is a human diffuse large B-cell lymphoma cell-line derived xenograft. 8 week old female SCID mice (Beijing HFK Bioscience Co., Ltd.) were inoculated subcutaneously in the right flank (cell suspension) with 4×10^6 OCI-Ly 10 cells. When the mean tumor volume reached approximately 200 mm^3, the animals were randomized into treatment and control groups (n=8/group). Tumor growth inhibition and body weight change were calculated on Day 21 of treatment.
Final doses received were 10 mg/kg or 5 mg/kg, respectively.
as §2, §3, §4, §5, §6
(§8) In the OCI-Ly 10 diffuse large B-cell lymphoma xenograft model, mice were inoculated, randomized on Day 0 (30 days post inoculation), and treatments began on Day 1 for all groups. […] One group served as the vehicle-treated group (Group 1) receiving IV treatment with the vehicle for I-263a (20% HPβCD) on a QW schedule.

[3] = tested on: WSU-DLCL2 human diffuse large B-cell lymphoma xenograft; test: Study 3: WSU-DLCL2 xenograft model, in vivo tumor efficacy; parameters: species or system SCID mice
Procedure: WSU-DLCL2 Study 3: WSU-DLCL2 is a human diffuse large B-cell lymphoma cell-line derived xenograft. 7 week old female SCID mice (Charles River Laboratories) were inoculated subcutaneously in the right flank (cell suspension with 4.0×10^6 cells). When the mean tumor volume reached approximately 200 mm^3, the animals were randomized into treatment groups and control groups (n=8/group). Tumor growth inhibition and body weight change were calculated on Day 21 of treatment. Tumor volumes below the humane end-point for size were continually monitored following the end of treatment (post-treatment period) for an additional week.
as §2, §3, §4, §5, §6
as §8, with “WSU-DLCL2” for “OCI-Ly 10”, “(8” for “(30”

[4] = tested on: TMD8 human diffuse large B-cell lymphoma xenograft; test: Study 4: TMD8 xenograft model, in vivo tumor efficacy; parameters: species or system SCID mice; settings: for TGI %: Day 18
Procedure: TMD8 Study 4: TMD8 is a human diffuse large B-cell lymphoma cell-line derived xenograft. 8 week old female SCID mice (Beijing HFK Bioscience Co., Ltd) were inoculated subcutaneously in the right flank (cell suspension with 4×10^6 cells). When the mean tumor volume reached approximately 190 mm^3, the animals were randomized into treatment groups and control groups (n=8/group). Tumor growth inhibition and body weight change were calculated on Day 18 of treatment. Tumor volumes below the humane end-point for size were continually monitored following the end of treatment (post-treatment period) for an additional week.
as §1, §2, §3, §4, §5, §6
as §8, with “TMD8” for “OCI-Ly 10”, “(10” for “(30”

[5] = tested on: PHTX-166L human patient-derived B-cell lymphoma primary xenograft; test: Study 5: PHTX-166L primary xenograft model, in vivo tumor efficacy; parameters: species or system mice; settings: for TGI %: Day 11
Procedure: PHTX-166L Study 5: PHTX-166L is a human patient-derived B-cell lymphoma primary xenograft. Small tumor pieces measuring approximately 2 mm×2 mm were implanted subcutaneousy on the right flank via trocar injection. When the mean tumor volume reached approximately 160 mm^3, the animals were randomized into treatment groups and control groups (n=7/group). Tumor growth inhibition and body weight change were calculated on Day 11 of treatment. Tumor volumes below the humane end-point for size were continually monitored following the end of treatment (post-treatment period) until Day 146 post treatment initiation.
as §2, §3, §4, §5, §6
as §8, with “PHTX-166L patient-derived primary” for “OCI-Ly 10 diffuse large”, “(24” for “(30”

[6] = tested on: PHTX-166L human patient-derived primary B-cell lymphoma xenograft; test: Study 6: PHTX-166L primary xenograft model, in vivo tumor efficacy; parameters: species or system mice
Procedure: Small tumor pieces measuring approximately 2 mm×2 mm were implanted subcutaneousy on the right flank via trocar injection.
as §2, §3, §4, §5, §6, §7

SUMO-activating enzyme = SUMO-activating enzyme (Homo sapiens, UniProt Q9UBT2); test: Biochemical assays of SUMO-activating enzyme inhibition
Chain of SUMO-activating enzyme (Q9UBT2 whole entry): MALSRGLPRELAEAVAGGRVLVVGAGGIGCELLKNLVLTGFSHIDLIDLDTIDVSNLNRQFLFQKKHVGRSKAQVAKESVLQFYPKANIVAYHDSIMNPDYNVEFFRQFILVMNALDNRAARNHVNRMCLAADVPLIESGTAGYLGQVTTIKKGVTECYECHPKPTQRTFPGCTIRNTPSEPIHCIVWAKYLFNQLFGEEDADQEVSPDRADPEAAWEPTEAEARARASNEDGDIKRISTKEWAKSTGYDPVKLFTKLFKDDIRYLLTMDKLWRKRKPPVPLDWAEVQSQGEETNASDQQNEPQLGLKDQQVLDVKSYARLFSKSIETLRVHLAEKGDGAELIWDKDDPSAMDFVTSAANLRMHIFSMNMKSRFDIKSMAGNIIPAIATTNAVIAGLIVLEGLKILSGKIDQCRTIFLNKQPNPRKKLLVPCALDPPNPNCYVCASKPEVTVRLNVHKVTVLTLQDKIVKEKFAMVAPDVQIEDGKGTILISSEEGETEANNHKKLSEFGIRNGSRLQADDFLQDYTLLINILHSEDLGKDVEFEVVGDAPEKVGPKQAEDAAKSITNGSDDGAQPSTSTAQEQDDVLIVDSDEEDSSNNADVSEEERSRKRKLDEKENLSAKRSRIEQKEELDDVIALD
Chain of SUMO-activating enzyme (Q9UBE0 whole entry partner): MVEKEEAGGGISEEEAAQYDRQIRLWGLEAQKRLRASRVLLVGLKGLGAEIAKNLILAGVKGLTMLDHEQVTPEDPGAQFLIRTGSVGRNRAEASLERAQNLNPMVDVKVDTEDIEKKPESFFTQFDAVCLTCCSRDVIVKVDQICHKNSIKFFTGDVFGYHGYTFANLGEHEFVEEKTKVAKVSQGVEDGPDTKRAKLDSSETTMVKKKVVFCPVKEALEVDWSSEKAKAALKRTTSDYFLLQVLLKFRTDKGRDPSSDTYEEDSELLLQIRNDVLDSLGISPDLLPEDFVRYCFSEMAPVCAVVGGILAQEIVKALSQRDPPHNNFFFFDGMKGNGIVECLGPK
Chain of SUMO-activating enzyme (P63165 1-97 partner limits assumed): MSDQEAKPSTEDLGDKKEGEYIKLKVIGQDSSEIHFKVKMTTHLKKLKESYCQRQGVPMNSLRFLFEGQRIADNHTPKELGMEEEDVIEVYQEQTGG
Description: (§9) SAE inhibitors, as disclosed herein, are described, for example, in US 2016/0009744 and U.S. Pat. No. 9,695,154. They may be prepared by methods known to one skilled in the art and/or according to the methods described in US 2016/0009744 and U.S. Pat. No. 9,695,154, which is hereby incorporated by reference in its entirety. Central to the mechanism of action of useful SAE inhibitors, such as Compound I-263a, in combinations and methods of the present disclosure is production of type 1 IFNs and induction of an innate immune response with activation of both natural killer (NK) cells and macrophages.

[7] = tested on: SUMO-activating enzyme and SUMOylation; test: Inhibition of SAE and SUMOylation in cultured tumor cell lines; assay type: cell-based; settings: cultured mouse and human tumor cell lines
Description: as §9

[8] = single-agent I-263a (25 and 15 mg/kg)
[9] = Group C: I-263a 12.5 mg/kg IV QW
[10] = Group B: I-263a 5.0 mg/kg IV QW

Cc1sc(C(=O)c2cncnc2N[C@@H]2C[C@H](COS(N)(=O)=O)[C@@H](O)C2)cc1[C@@H]1NCCc2ccc(Cl)cc21 [Compound I-263a, [(1R,2S,4R)-4-{[5-({4-[(1R)-7-chloro-1,2,3,4-tetrahydroisoquinolin-1-yl]-5-methyl-2-thienyl}carbonyl)pyrimidin-4-yl]amino}-2-hydroxycyclopentyl]methyl sulfamate]
Days to 1000 mm^3 MTV ([1]; Group B: I-263a 25 mg/kg IV QW): 39 days | Tumor volume on Day 21 (±SEM) ([1]; Group B: I-263a 25 mg/kg IV QW): 409.7 ± 19.2 mm^3 | TGI % ([1]; Group B: I-263a 25 mg/kg IV QW): 31.3% | dAUC ([1]; Group B: I-263a 25 mg/kg IV QW): 23.6% | Days to 1000 mm^3 MTV ([1]; Group C: I-263a 15 mg/kg IV QW): 37.6 days | Tumor volume on Day 21 (±SEM) ([1]; Group C: I-263a 15 mg/kg IV QW): 443.7 ± 12.3 mm^3 | TGI % ([1]; Group C: I-263a 15 mg/kg IV QW): 25.6% | dAUC ([1]; Group C: I-263a 15 mg/kg IV QW): 21.4% | Day by which all mice were euthanized (group reached 1000 mm^3 or humane end-point for size) [1, 8]: ≤ 120 days | Days to 1000 mm^3 MTV ([2]; Group B: I-263a 10 mg/kg IV QW): 32.1 days | Tumor volume on Day 21 (±SEM) ([2]; Group B: I-263a 10 mg/kg IV QW): 706.9 ± 51.3 mm^3 | dAUC ([2]; Group B: I-263a 10 mg/kg IV QW): 25.6 | TGI % ([2]; Group B: I-263a 10 mg/kg IV QW): 41.3% | Days to 1000 mm^3 MTV ([2]; Group C: I-263a 5 mg/kg IV QW): 28.7 days | Tumor volume on Day 21 (±SEM) ([2]; Group C: I-263a 5 mg/kg IV QW): 759.3 ± 33.2 mm^3 | dAUC ([2]; Group C: I-263a 5 mg/kg IV QW): 26.8 | TGI % ([2]; Group C: I-263a 5 mg/kg IV QW): 37% | Day by which all mice were euthanized (group reached 1000 mm^3 or humane end-point for size) ([2]; single-agent I-263a (10 and 5 mg/kg)): ≤ 35 days | Days to 1000 mm^3 MTV ([3]; Group B: I-263a 5 mg/kg IV QW): 17.2 days | Tumor volume on Day 21 (±SEM) ([3]; Group B: I-263a 5 mg/kg IV QW): 1340.3 ± 188.1 mm^3 | dAUC ([3]; Group B: I-263a 5 mg/kg IV QW): 28.1 | TGI % ([3]; Group B: I-263a 5 mg/kg IV QW, Day 21): 37.6% | Day by which all mice were euthanized (group reached 1000 mm^3 or humane end-point for size) ([3]; single-agent I-263a 5 mg/kg): ≤ 24 days | Days to 1000 mm^3 MTV ([4]; Group B: I-263a 25 mg/kg IV QW): 14.1 days | Tumor volume on Day 18 (±SEM) ([4]; Group B: I-263a 25 mg/kg IV QW): 1297.4 ± 120.2 mm^3 | dAUC ([4]; Group B: I-263a 25 mg/kg IV QW): 13.6 | TGI % ([4]; Group B: I-263a 25 mg/kg IV QW): 27.8% | Days to 1000 mm^3 MTV ([4]; Group C: I-263a 15 mg/kg IV QW): 12.8 days | Tumor volume on Day 18 (±SEM) ([4]; Group C: I-263a 15 mg/kg IV QW): 1604.1 ± 144.7 mm^3 | dAUC ([4]; Group C: I-263a 15 mg/kg IV QW): 10.1 | TGI % ([4]; Group C: I-263a 15 mg/kg IV QW): 10.7% | Day by which all mice were euthanized (group reached 1000 mm^3 or humane end-point for size) [4, 8]: ≤ 120 days | Days to 1000 mm^3 MTV ([5]; Group B: I-263a 25 mg/kg IV QW): >18 days | dAUC ([5]; Group B: I-263a 25 mg/kg IV QW): 45.0 | Tumor volume on Day 11 (±SEM) ([5]; Group B: I-263a 25 mg/kg IV QW (Days 1 and 8)): 540.2 ± 58.5 mm^3 | TGI % ([5]; Group B: I-263a 25 mg/kg IV QW): 72% | Days to 1000 mm^3 MTV [5, 9]: 13.2 days | dAUC [5, 9]: 35.4 | Tumor volume on Day 11 (±SEM) ([5]; Group C: I-263a 12.5 mg/kg IV QW (Days 1 and 8)): 758.2 ± 104.7 mm^3 | TGI % [5, 9]: 60.6% | Days to 1000 mm^3 MTV [6, 10]: 9.1 days | dAUC [6, 10]: 34.3 | Tumor volume on Day 9 (±SEM) ([6]; Group B: I-263a 5.0 mg/kg IV QW (Days 1 and 8)): 992.2 ± 115.2 mm^3 | TGI % ([6]; Group B: I-263a 5.0 mg/kg IV QW, Day 9): 51.4% | Inhibition of SUMO-activating enzyme activity (SUMO-activating enzyme; mechanism-based inhibitor forming a covalent adduct with SUMO): potently inhibits enzyme activity | Selectivity for SUMO-activating enzyme (SUMO-activating enzyme; over ubiquitin-activating enzyme, Nedd8-activating enzyme, and autophagy related 7 enzyme): Strong selectivity | Inhibition of SUMO-activating enzyme and SUMOylation in cells [7]: Selective and potent inhibition
